Values joined by “and” are separate entries in the source; they are usually repeats but may differ in a detail not shown here. Equal values may be shown once.
Key:
[1] = test system: Adjuvant Induced Arthritis; assay: Adjuvant Induced Arthritis Model; assay type: in vivo; conditions: rat, 20 mg per KG body weight orally once per day for 14 days, Day 14
Description: Adjuvant Induced Arthritis Model: Male Sprague-Dawley rats (160-180 g) were sensitized by injecting Fruend's Complete Adjuvant (0.5% suspension of killed mycobacterium tuberculosis (H37RA, Difco in mineral oil)). 0.05 ml was administered intradermally at a plantar site on the right hind leg of each rat. The test materials were given orally (by gavage) in 0.5% methylcelluose, at a dose level of 20 milligrams per kilo body weight, and given once per day for 14 days. The administration was started the day after sensitization. The left hind paw was measured just before sensitization and on Day 14, and the plantar edema inhibitory rate and the body weight gain rate were determined in comparison with the nonsensitized rat groups. The paw weights for each group in each test run were averaged. Activity was calculated as follows: [formula]
The Anti-inflammatory response is the difference in the mean foot volume. […] FIG. 4.

Sarcoma 180 tumor = assay: Anti-Cancer Activity Against Mouse Tumor Sarcoma 180; assay type: in vivo; conditions: 10 mg/kg
Description: This model has been used extensively as indicative of neovascularization in mammals inasmuch as the tumor so implanted is quickly vascularizing.
Experimental Design: All mice were weighed at test initiation and test termination. The animals were divided into three groups. The Sarcoma 180 tumor was made up from a passage mouse to furnish […] per 0.1 mL inoculum. The cells were injected into the left leg hamstring muscle mass. The was delivered to the mice by I.P. injections, or gavage on days 1-5.
At the termination of the experiments, the mice were weighed and the left rear leg was amputated at the thigh. The skin was removed from the leg to expose the site at which the tumor was located. […].

[2] = test system: ovalbumin-induced bronchoconstriction; assay: Pulmonary, Histamine H3 (ovalbumin-induced bronchoconstriction); assay type: in vivo, guinea pig; conditions: Peptide PO 10 mg/kg, R-α-methylhistamine IV 30 mg/kg
Description: (§1) For in vivo assay, distilled water and saline was used as vehicle in oral and intraperitoneal administration, respectively. Dosing volume was 20 ml/kg for mice or 10 ml/kg for rats.
A group of Duncan Hartley derived male or female guinea pigs weighing 250±50 gms were anesthetized with pentobarbital sodium (50 mg/kg IP plus an additional 15 mg/kg IP if required) and succinylcholine chloride (2 mg/animal IP) was subsequently administered to prevent spontaneous respiration. Body temperature was maintained at 37° to 38° C. The trachea was cannulated and the guinea pig ventilated with a Harvard rodent respirator in a closed system. Tracheal pressure (TP) was recorded through a side-arm of the cannula connected to a P23ID Statham transducer. Respiratory rate set at 50 strokes/minute with a stroke volume (approximately 1 ml/100 g) sufficient to produce a baseline tracheal pressure of 6 cm H2O. Mean arterial pressure was monitored from a cannulated carotid artery, and heart rate was obtained from chest electrodes arranged for lead II. The jugular vein was cannulated for IV vehicle or drug administration in a volume of 1 ml/kg. Guinea pigs were sensitized with IP injections of ovalbumin 0.5 μg+Al(OH)3 1 mg (0.5 ml/animal) on days 1, and boosted with same dosage of ovalbumin and Al(OH)3 vaccine on day 8; and the animals were ready to be challenged between days 19 and 23 to get a submaximal ovalbumin (50 μg/kg IV)-induced bronchoconstriction, reflected as an increase in tracheal pressure (cm H2O). […]. Test substances were administered PO (10 mg/kg) at 60 minutes before ovalbumin (50 μg/kg IV) challenge in 3 guinea pigs. Tracheal pressure, blood pressure and heart rate were measured immediately before and after ovalbumin challenge.

histamine H3 receptor = target: T1, histamine H3 receptor (Cavia porcellus, UniProt Q9JI35); assay: Histamine H3 Agonism/Antagonism, guinea pig ileum; assay type: cell-based; conditions: Peptide 30 μM, Thioperamide 0.3 μM; for Agonism, Ave.: R(α)-Methylhistamine 0.3 μM; for Agonism: relaxation within 5 minutes relative to 0.3 μM R-α-methylhistamine, R(α)-Methylhistamine 0.3 μM (0.1 printed in r13)
T1 construct: ileum obtained from Duncan Hartley derived male or female guinea pigs; from tissue; host or cells: guinea pig ileum segment, field-stimulated
T1 sequence (Q9JI35 whole entry): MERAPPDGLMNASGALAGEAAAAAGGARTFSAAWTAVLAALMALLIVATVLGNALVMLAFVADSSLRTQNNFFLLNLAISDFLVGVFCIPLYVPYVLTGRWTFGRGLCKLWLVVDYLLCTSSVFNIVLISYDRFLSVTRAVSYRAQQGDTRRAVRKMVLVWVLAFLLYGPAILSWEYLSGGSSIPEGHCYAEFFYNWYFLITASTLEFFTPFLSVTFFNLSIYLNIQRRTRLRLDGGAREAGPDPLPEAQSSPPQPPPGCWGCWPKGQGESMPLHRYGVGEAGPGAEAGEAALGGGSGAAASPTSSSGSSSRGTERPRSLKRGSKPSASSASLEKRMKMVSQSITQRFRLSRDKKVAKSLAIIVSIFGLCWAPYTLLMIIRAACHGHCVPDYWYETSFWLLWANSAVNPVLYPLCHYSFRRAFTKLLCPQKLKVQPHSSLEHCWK
Description: A segment of ileum obtained from Duncan Hartley derived male or female guinea pigs weighing 325±25 gms and sacrificed by CO2 overexposure were used. The tissue was placed under 0.5 g tension in a 10 ml bath containing Kreb's solution pH 7.4 and pyrilamine (0.3 μM) at 32° C. and subjected to field stimulation (70% of maximum voltage, 0.1 Hz, 0.5 millisecond). Test substance (30 μM)-induced reduction of isometrically recorded contractions 50 percent or more (≧50%) within 5 minutes, relative to control 0.3 μM R-α-methylhistamine response, indicated possible histamine H3 receptor agonist activity. At a test substance concentration where no significant agonist activity was seen, ability to inhibit R-α-methylhistamine-induced response by 50 percent or more (≧50%) indicated histamine H3 receptor antagonist activity. Each concentration was tested on two separate preparations.

[3] = test system: DNBS-induced distal colitis; assay: Inflammation, Inflammatory Bowel Disease (DNBS distal colitis); assay type: in vivo, rat; conditions: PO, Peptide 30 mg/kg × 7, Sulfasalazine 300 mg/kg × 7
Description: as §1
Groups of 3 Sprague-Dawley derived male rats weighing 150±20 gms and fasted for 24 hours were used. Distal colitis was induced by intra-colonic instillation of DNBS (2,4-dinitrobenzene sulfonic acid, 30 mg in 0.5 ml ethanol 30%) after which air (2 ml) was gently injected through the cannula to ensure that the solution remains in the colon. Test substance was administered PO (30 mg/kg) at 24 and 2 hours before DNBS instillation. Then, the animals received test compound every 24 hours for 5 consecutive days. The control group was given vehicle alone as compound dosing pattern. The animals were sacrificed 24 hours after the final dose of test compound administration and each colon was removed and weighed. Colon-to-body weight ratio was obtained from the percentage of the comparison between the animal colon weight and body weight on the 8th day. A 30 percent or more (±30%) reduction in colon-to-body weight ratio relative to the vehicle treated control group was considered significant.

[4] = test system: oxazolone-induced ear swelling; assay: Immune Suppression, Cellular (oxazolone ear thickness); assay type: in vivo, mouse; conditions: IP, Peptide 100 mg/kg × 5, Cyclophosphamide 30 mg/kg × 5
Description: as §1
Groups of 5 ICR derived male mice weighing 22±1 gms were used. The preshaved abdominal surface was sensitized by application of oxazolone 0.1 ml of 5% solution. […] After additional four days, the animals were challenged by secondary application of oxazolone (0.025 ml of 5% solution) to the right ear. After a further 24 hours, each mouse was sacrificed and ear thickness measured with a Dyer Model micrometer gauge. A 30 percent or more (≧30%) decrease relative to the vehicle control group was considered significant and indicated possible immunosuppressant activity.

Histamine H3 = target: T2, Histamine H3 (Rattus norvegicus, UniProt Q9QYN8); assay: Histamine H3 radioligand binding; conditions: historical value
T2 construct: rat brain; from tissue; host or cells: rat brain
T2 sequence (Q9QYN8 whole entry): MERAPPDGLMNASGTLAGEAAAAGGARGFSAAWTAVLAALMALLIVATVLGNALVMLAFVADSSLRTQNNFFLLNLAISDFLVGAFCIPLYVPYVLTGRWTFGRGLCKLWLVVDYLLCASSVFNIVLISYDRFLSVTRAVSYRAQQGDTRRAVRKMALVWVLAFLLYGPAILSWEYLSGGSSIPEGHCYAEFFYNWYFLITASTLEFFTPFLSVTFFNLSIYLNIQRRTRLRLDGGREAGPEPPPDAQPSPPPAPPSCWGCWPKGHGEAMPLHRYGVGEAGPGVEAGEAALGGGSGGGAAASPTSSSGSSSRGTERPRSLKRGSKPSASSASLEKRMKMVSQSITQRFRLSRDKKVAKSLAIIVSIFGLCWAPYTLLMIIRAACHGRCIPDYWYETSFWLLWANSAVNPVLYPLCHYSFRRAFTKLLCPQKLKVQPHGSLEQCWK
Description: The peptide was further screened in vitro in a variety of enzyme and biochemical assays. Methods employed were adapted from the scientific literature to maximize reliability and reproducibility. The primary literature reference for each assay is listed in Table 11 opposite the results for each assay.
Results presented in Table 10, “Results,” are the average of duplicate determinations, unless otherwise noted.
Reference compounds were tested concurrently at 5 concentrations as an integral part of each assay to ensure the validity of the results obtained.
Radioligand binding assays were performed under conditions described in Table 8, “Experimental Conditions.” Radioligands employed in this study are given in Table 8, and commercial sources and catalog numbers of the radioligands are provided in Table 7, “Material Sources.” Unlabeled, blocking ligands employed this study are listed in Table 8, “Experimenal Conditions,” along with the commercial sources and catalog number of the unlabeled ligand. The concurrent reference compound (control) employed in each assay is listed in Table 9, “Reference Compound Data,” along with the commercial supplier and catalog number of the compound. […]
Maximum total binding and nonspecific binding were determined each time each assay was run. […]
Where inhibition constants (Ki) are presented, the Ki values were calculated using the equation of Cheng and Prusoff (Cheng, Y., Prusoff, W. H., Biochem. Pharmacol. […], 1973) using the observed IC50 of the tested compound, the concentration of radioligand employed in the assay, and the historical values for the Kd of the ligand (obtained experimentally). Where presented, the Hill Coefficient (nH), defining the scope of the competitive binding curve, was calculated using GraphPad Prism. […] Where IC50, Ki, and/or Hill Slope data is presented without Standard Error of the Mean (SEM), data are insufficient to be quantitative, and the values presented (Ki, IC50, nH) should be interpreted with caution. […]

PAF-induced mortality = assay: Platelet Activating Factor (PAF) Antagonism; assay type: in vivo, mouse; conditions: Peptide 100 mg/kg, WEB-2086 3 mg/kg
Description: as §1
Groups of 5 male ICR mice weighing 22±2 gms were employed. At dose of 100 mg/kg test substance dissolved in a vehicle of distilled water were administered orally. The control group received vehicle alone. At 60 minutes after dosing, the animals were injected intravenously PAF-acether ([…] IV, dissolved in 0.25% BSA). One hour later, the survival animals were recorded. The prevention of PAF-induced mortality in 50 percent or more (≧50%) of mice indicated significant activity.

## C[C@]12CCC(=O)C=C1CC[C@@H]1[C@@H]2[C@@H](O)C[C@@]2(C)[C@H]1CC[C@]2(O)C(=O)CO [hydrocortisone]
[1]
  anti-inflammatory response (percent inhibition): 132.6%

## LEU-PRO-PRO-SER-ARG [synthetic peptide (crude 60%)]
Sarcoma 180 tumor; I.P. injections or gavage on days 1-5, 6 mice
  % tumor inhibition: 58.6%
Sarcoma 180 tumor; net tumor weight, I.P. injections or gavage on days 1-5, 6 mice
  Mean tumor wt. gain, gm: 1.45 gm

## CCCCC1C(=O)N(c2ccccc2)N(c2ccccc2)C1=O [Phenylbutazone]
[1]
  anti-inflammatory response (percent inhibition): 112.2%

## C[C@@H](N)Cc1c[nH]cn1 [R (α)-Methylhistamine, R-α-Methyl histamine, reference compound]
[2]; group mean, N=3
  Inc. of TP X ± SEM: 11.3 ± 7.2 cm H2O
[2]; individual guinea pig, tracheal pressure after ovalbumin 50 μg/kg IV
  Inc. of TP Ind.: 8.5 cm H2O and 25.0 cm H2O and 0.5 cm H2O
[2]; inhibition of induced bronchoconstriction relative to vehicle
  % INH.: 61.6%
Histamine H3 receptor; average of two preparations
  Agonism, Ave.: 100%
Histamine H3 receptor; individual preparation
  Agonism: 100%

## O=C(O)c1cc(/N=N/c2ccc(S(=O)(=O)Nc3ccccn3)cc2)ccc1O [Sulfasalazine]
[3]; group mean minus blank-control
  Ratio Net: 0.181%
[3]; group mean
  Ratio Ind., X (group mean): 0.551%
[3]; individual rat, Colon (g)/8th B.W. × 100%
  Ratio Ind. (colon-to-body weight ratio): 0.496% and 0.508% and 0.650%
[3]; reduction in colon-to-body weight ratio relative to vehicle control
  % INH.: 49%

## O=P1(N(CCCl)CCCl)NCCCO1 (centres unmarked) [Cyclophosphamide, Cyclophosphamide Monohydrate]
[4]; decrease of net ear thickness relative to vehicle control
  % INH.: 51%
[4]; group mean
  Thickness Net, X (group mean): 13.4 × 0.1 mm
[4]; individual mouse, R. Ear minus L. Ear, Monohydrate
  Thickness Net: 16 × 0.1 mm and 10 × 0.1 mm and 14 × 0.1 mm and 7 × 0.1 mm and 20 × 0.1 mm
[4]; individual mouse, challenged right ear, 24 hours after oxazolone challenge, Monohydrate
  Thickness R. Ear: 38 × 0.1 mm and 26 × 0.1 mm and 32 × 0.1 mm and 23 × 0.1 mm and 40 × 0.1 mm
[4]; individual mouse, left ear, Monohydrate
  Thickness L. Ear: 22 × 0.1 mm and 16 × 0.1 mm (2×) and 18 × 0.1 mm and 20 × 0.1 mm

## CNCCc1cnc[nH]1 [NAMH]
Histamine H3; read-out: ^1IC, (IC50 of reference compound)
  IC50: 2.9 nM
Histamine H3; read-out: ^1K1 (Ki of reference ligand)
  Ki: 0.75 nM

## Cc1nnc2n1-c1sc(CCC(=O)N3CCOCC3)cc1C(c1ccccc1Cl)=NC2 [WEB-2086, reference compound]
PAF-induced mortality; PO one hour before PAF-acether 100 μg/kg IV
  % Protection: 60%
PAF-induced mortality; of 5 mice, one hour after PAF-acether 100 μg/kg IV, PO one hour before
  No. of Survival: 3

## S=C(NC1CCCCC1)N1CCC(c2cnc[nH]2)CC1 [Thioperamide]
Histamine H3 receptor; average of two preparations
  Agonism, Ave.: 0%
  Antagonism, Ave.: 93%
Histamine H3 receptor; individual preparation, reduction of 0.3 μM R(α)-methylhistamine-induced relaxation
  Antagonism: 90% and 96%
Histamine H3 receptor; individual preparation
  Agonism: 0%
